# Assay results taken from a melting point compilation (Tetko et al.; mined from patent text by program, amines drawn as free bases though some values may be those of a salt).
row,SMILES,melting point [°C]
1,COc1ccc(S(=O)(=O)Nc2ccccc2OC)cc1,85.5 to 87
2,C=Cc1c(CC)nc(CC)c(CO)c1-c1ccccc1,84 to 85
3,Clc1cc2c(cc1Cl)Sc1cc(Cl)c(Cl)cc1S2,250 to 255
4,COCCNC1CCN(c2ccc(NC(=O)c3cnn(-c4ccc(Cl)cc4)c3C)cc2C#N)CC1,194
5,C=Cc1ccc(CNc2ccccn2)c(Cl)c1,119 to 121
6,O=C1N(CC2COCCO2)c2ccccc2C12COc1cc3c(cc12)OCO3 (stereo unspecified),147 to 149
7,COC(=O)c1ccc(OCCNC(=O)C2Cc3ccccc3N2S(=O)(=O)c2ccc(-c3ccc(F)cc3Cl)cc2)nc1 (stereo unspecified),78 to 85
8,CC1=c2cc(Br)ccc2=NC1=O,119 to 120
9,COC(=O)c1cn2c3c(c(N4CCCC4)c(F)cc3c1=O)CCN2C,203 to 206
10,CC1=C(N)C(C)C2CC(C)(CC3CCN(c4ccc(-n5ccnc5)cc4)CC3)OC2=C1C (stereo unspecified),170 to 172
11,COc1cc(OC)cc(-c2ncoc2-c2ccc(OC)c(N)c2O)c1,152 to 154
12,COc1ccccc1Cc1nc2ccccc2c(=O)n1CCO,154 to 155
13,Cc1ccc2c(c1)CC(N1CCN(CCN3CCOC3=O)CC1)c1cc(Cl)ccc1S2 (stereo unspecified),174 to 175
14,COc1ccc2c(c1)N(Cc1ccccc1)C(=O)[C@H]1CCC[C@H]1N2C(=O)CN1C(=O)c2ccccc2C1=O (relative stereo),244 to 245
15,O=c1ccc(-c2c(-c3ccccc3)nn3ccccc23)c[nH]1,222 to 224
16,O=C(Nc1ccc2nc(CN3CCN=C3c3ccccc3)ccc2c1)c1ccc(-c2ccc(F)cc2)cc1,209 to 210
17,O=c1cc(-c2ccccc2)oc2cc(OCCCCCN3CCC(O)CC3)ccc12,94 to 95
18,Cc1cc(-c2nncc3c(C(C)(C)C)c(OCc4cccnc4)nn23)no1,139 to 141
19,Cc1ccc2c(n1)CC(c1ccccc1C)CC2=O (stereo unspecified),76 to 77
20,CC(C)(C)OC(=O)N1CCCN(CC2=Nc3cccc4c(=O)[nH]nc(c34)N2)CC1,219 to 221
21,O=c1oc(-c2ccsc2)cc(O)c1SCc1ccccc1,150 to 151
22,C=CCON1C(=O)c2ccc(Cl)c3c(N4CC[C@H](NC(=O)OC(C)(C)C)C4)cc(Cl)c(c23)C1=O,123 to 125
23,CCC(C)(C)Nc1c(NCc2cccc(Cl)c2Cl)c(=O)c1=O,222 to 223
24,O=S(=O)(Nc1cccc(Cl)c1)c1ccc(Nc2nc(OCC3CCCCC3)c3nc[nH]c3n2)cc1,248 to 249
25,N#CCc1cccc2c(-c3ccccc3)onc12,125 to 138
26,COc1cccc(C(CN2CCN(c3cncc(Cl)n3)CC2)C2(O)CCCCC2)c1 (stereo unspecified),157 to 158

row,SMILES,melting point [°C]
1,Cc1ccc(OC2=C(Oc3ccc(C)c(C)c3)C(F)(F)C(F)(F)C2(F)F)cc1C,65 to 67
2,CC(C)Oc1ccc2nc(COc3ccc(CC4SC(=O)N(C(c5ccccc5)(c5ccccc5)c5ccccc5)C4=O)cc3)n(C)c2n1 (stereo unspecified),90 to 100
3,C[Si](C)(C)c1[nH]c2ccccc2c1C1CC1,78 to 81
4,COc1ccc2[nH]c(S(=O)Cc3nccc(N(C)C)c3F)nc2c1 (stereo unspecified),145 to 147
5,CCOC(=O)C(=CNc1nonc1C)C(=O)c1cc(F)c(Cl)nc1Cl,139 to 142
6,COC(=O)CCC#Cc1nc(Cl)ccc1N,96 to 100
7,CNC(=O)c1ccn2nc(-c3ccccc3)c(-c3ccc(=O)n(C(C)C)n3)c2c1,225 to 226
8,CCCOc1ccc(C#N)cc1O,99
9,O=C(N[C@H](Cc1cccc(OC(F)(F)C(F)F)c1)[C@@H](O)c1ccc(F)nc1)c1ccc(F)c2ccccc12 (racemic),148 to 149
10,CC1(C)OC(=O)Nc2ccc(-c3ccccc3Cl)cc21,181 to 182
11,CCn1c(C)c(C(C)=O)c(N)c1-c1ccccc1,107 to 108
12,NC1(C2CCCC2)NC=Nc2[nH]cc(-c3cccc(Oc4ccccc4)c3)c21 (stereo unspecified),128
13,O=C(O)c1ccc2c(c1)C(C(Cl)Cl)OC(C(Cl)(Cl)Cl)O2 (stereo unspecified),209
14,CC(C)C(=O)c1c(C(C)C)nn2ccccc12,53 to 55
15,CC1c2ccccc2CCN1C(=O)c1cc2ncc(Br)cn2n1 (stereo unspecified),121 to 123
16,COC(=O)c1ccc(OCCCNC(=O)C[C@H]2O[C@H](c3cccc(OC)c3OC)c3cc(Cl)ccc3N(CC(C)(C)CO)C2=O)cc1,147 to 149
17,CC1(C)OC(=S)Nc2ccc(-c3cccc(Br)c3)cc21,191 to 193
18,CS(=O)(=O)c1ccc(C2=C(c3ccc(C(F)(F)F)cc3)CCC2)cc1,134 to 135
19,CC(C)NC(=S)Nc1cccc(-c2ccnc3c(C(=O)c4cccs4)cnn23)c1,208 to 210
20,Cc1ccc(C(=O)Nc2c(NC(=O)CN3CCN(CCO)CC3)ccc3c2C(=O)c2ccccc2C3=O)cc1,210 to 211
21,CCOCc1nc2c(N)nc3ccccc3c2n1NCCCNC(=O)Nc1ccccc1,177 to 179
22,CCc1cn(-c2nc(C)nc(NC)n2)c2ccccc12,174 to 175
23,Cn1c(Cl)nc2c3ncc(Cl)cc3ccc21,211 to 213
24,O=C(Nc1ccccc1)C(=O)N1CCC(Cc2ccccc2)CC1,125 to 128
25,O=C(COc1cccc(Cl)c1)NCCO[N+](=O)[O-],62 to 64
26,FC(F)(F)c1ccc(-c2cc(C(F)(F)F)c(Br)nn2)cc1,123 to 125

row,SMILES,melting point [°C]
1,CC(C)OC(=O)N1CCC(c2nc3cc(-c4ccc(C(N)=O)cc4Cl)ccc3o2)CC1,178 to 182
2,CCOC(=O)Cn1[nH]c(=O)c2ccccc2c1=O,68 to 70
3,Cn1cc(-c2cc3cccnc3[nH]2)c2cc(C(=O)NC(C)(CO)CO)ccc21,180 to 182
4,COc1ccnc(CSc2nc3cc(C(F)(F)F)ccc3[nH]2)c1C,148
5,CCOC(=O)C1=C(C(F)(F)F)Nc2n[nH]cc2C1c1ccccc1F (stereo unspecified),119 to 120
6,COC(=O)N=C(NC(=O)NC1CCCCC1)OC,79 to 80.5
7,COc1ccc(N2CCOCC2)c2sc(C(N)=S)nc12,238
8,CC(=O)OC1CSC(Sc2ccc(C#N)cc2C#N)C(OC(C)=O)C1OC(C)=O (stereo unspecified),228
9,CCCc1ccc(OC)c(-c2csc(N)n2)c1,84
10,CC1(C)COc2cc(Br)ccc2C(O)(c2ccccn2)C1 (stereo unspecified),110
11,O=C1COc2ccc(C3=Nn4cnnc4SC3c3ccccc3Cl)cc2N1 (stereo unspecified),234 to 235
12,CCCc1c(OC(C)c2cccc(C(=O)O)c2)ccc(C(C)=O)c1O (stereo unspecified),101 to 103
13,OCC1C(c2ccc(F)cc2)CCC12C=Cc1ccccc12 (stereo unspecified),84 to 86
14,CCOP(=O)(Cc1ccc(NC(=O)CCCc2cnoc2-c2ccccc2)cc1)OCC,128 to 129
15,CCCNC(=O)C(C)Cc1ccc2cccc(Cc3ccc(C(=O)NS(=O)(=O)c4ccccc4C)cc3OC)c2c1 (stereo unspecified),210 to 212
16,CNCCc1c(C)[nH]c2ccc(S(=O)(=O)c3ccccc3)cc12,165 to 166
17,COC(=O)[C@H](Cc1cc(Cl)c(OCCCNC(=O)OC(C)(C)C)c(Cl)c1)NC(=O)C(F)(F)F,90 to 91.5
18,CCOC(=O)C(C)(C)n1c(=O)c2ccccc2n(CCCCBr)c1=O,113 to 114
19,CCc1ccc2sc3cc(C#N)ccc3c(=O)c2c1,198 to 215
20,CCCc1cccc2nc3c(=O)[nH][nH]c(=O)c3c(O)c12,> 400
21,CC1=CC(c2ccccc2C(F)(F)F)C([N+](=O)[O-])=C(C)N1 (stereo unspecified),201
22,COc1ccc(-c2cn[nH]c2N)cc1OC,143 to 146
23,CC(C)(C)c1cc(/C=C/c2n[nH]c(=S)s2)cc(C(C)(C)C)c1O,248 to 249
24,C=CCNC(=O)c1cc(Cl)c2[nH]ncc2n1,121 to 125
25,CCOCc1nc2c(N)nc3ccccc3c2n1CC1(NC(C)=O)CCCCC1,178 to 180
26,COc1cc(O)ccc1C=CC(=O)c1ccc(O)cc1,210 to 212

row,SMILES,melting point [°C]
1,Cc1cccc(C2(O)c3cc(NC(=O)CC(C)(C)C)c(C)c(C)c3OC2(C)C)c1 (stereo unspecified),113 to 114
2,COc1ccc(NC(=N)c2cccs2)cc1CO,191 to 192
3,CC1CCc2cc(F)cc3c(=O)c(C(=O)Cl)cn1c23 (stereo unspecified),183 to 186
4,Clc1ccc2nc(Cl)c3ncn(-c4ccccc4Cl)c3c2c1,194 to 200
5,CCCn1nc2oc(=O)cc(C)c2c1C,108 to 110
6,CCC(C)(C)c1cc(C(=O)c2ccccc2)c(O)cc1O,100 to 104
7,COc1ccc(CC(N)(C#N)CF)cc1OC (stereo unspecified),76
8,CC(C)NCC(O)COc1ncccc1Cl (stereo unspecified),71 to 73
9,COc1ccc2c(c1OC)CC(c1ccccc1)CC2=O (stereo unspecified),127 to 128
10,CC(C)CNC(=O)c1cccc(-c2ccnc3c(C(=O)c4cccs4)cnn23)c1,174 to 177
11,O=c1[nH]cnc2cscc12,275 to 278
12,CCN1CCN(Cc2nc3sc(C)c(C)c3c(=O)n2-c2ccccc2Cl)CC1,126 to 129
13,CN(C)C(=O)Nc1snc(S(C)=O)c1C#N (stereo unspecified),178 to 179
14,Cc1cccc(C(O)c2cncn2C(c2ccccc2)(c2ccccc2)c2ccccc2)c1C (stereo unspecified),203 to 207
15,O=C(O)c1ccc2c(c1)NCc1ccccc1O2,251 to 252
16,CC(=O)OC1CCCCC1n1cnc2cc(Cl)c(Cl)cc21 (stereo unspecified),145 to 147
17,Cc1cc2c(c(C)c1O)C(C)(C)CN2C(=O)C(C)(C)C,143 to 144
18,FC(F)(F)c1ccc(-c2cc(Oc3ccc4cccnc4c3)ncn2)c(OCCN2CCOCC2)c1,132 to 133
19,Cc1ccc(S(=O)(=O)OCC2Cc3cc(Cl)c4c(c3O2)CCC4)cc1 (stereo unspecified),82 to 84
20,C=CCn1c(Cc2ccccc2)c(CC)c(=O)[nH]c1=O,164 to 165
21,O=C1NCCC[C@@H]1NS(=O)(=O)c1cccc(F)c1,159 to 160
22,CC(=O)OC1CCC2(C)C3CCC4(C)C(C(C)CCCC(C)(C)O)CCC4C3CCC2(O)C1 (stereo unspecified),180 to 182
23,CCCNC(=O)N1Cc2cccn2-c2ccsc2C1=O,120
